Columns and labels:
Format in all cases: in vivo
Conditions in all cases: 200 ppm, 100 = 100% disease control
Botrytis cinerea = experiment: Test C: tomato Botrytis on tomato seedlings, sprayed the day before inoculation, visual disease rating
How it was run: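 Compounds were dissolved in acetone (3% of final volume), then suspended in 50/50 acetone/purified water containing 250 ppm polyhydric alcohol ester surfactant. Suspensions were sprayed to run-off on tomato seedlings at 200 ppm, equivalent to 500 g/ha, or at 40 ppm where marked.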

Alternaria solani = experiment: Test D: tomato early blight, sprayed the day before inoculation, visual disease rating
How it was run: (§1)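 Compounds were dissolved in acetone (3% of final volume), then suspended in 50/50 acetone/purified water with 250 ppm Trem® 014 surfactant. Suspensions at 200 ppm (some at 40 ppm) were sprayed to run-off, 200 ppm being equivalent to 500 g/ha.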

Septoria nodorum = experiment: Test F: wheat glume blotch on wheat seedlings, sprayed the day before inoculation, visual disease rating
How it was run: as §1

Septoria tritici = experiment: Test G: wheat leaf blotch on wheat seedlings, sprayed the day before inoculation, visual disease rating
How it was run: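 Disease was rated visually after Septoria tritici inoculation, 48 h saturated incubation at 24°C and 19 days in a 20°C growth chamber. Inoculation followed one day after run-off spraying of seedlings with compound at 200 ppm (≈500 g/ha) or, where marked, 40 ppm, formulated in acetone/water with surfactant.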

[1] = test system: Puccinia recondita f. sp. tritici; experiment: Test H: wheat leaf rust, test suspension sprayed after inoculation of wheat seedlings, visual disease rating
Description: General protocol for preparing test suspensions for Tests A-J: The test compounds were first dissolved in acetone in an amount equal to 3% of the final volume and then suspended at the desired concentration (in ppm) in acetone and purified water (50/50 mix) containing 250 ppm of the surfactant Trem® 014 (polyhydric alcohol esters). The resulting test suspensions were then used in tests A-J. Spraying a 200 ppm test suspension to the point of run-off on the test plants was the equivalent of a rate of 500 g/ha. […] Wheat seedlings were inoculated with a spore suspension of Puccinia recondita f. sp. tritici (the causal agent of wheat leaf rust) and incubated in a saturated atmosphere at 20° C. for 24 h, and then moved to a growth chamber at 20° C. for 2 days. […] A dash (-) indicates no test results. All results are for 200 ppm except where followed by “*”, which indicates 40 ppm.

[2] = test system: Puccinia recondita f. sp. tritici; experiment: Test I: wheat leaf rust on wheat seedlings, sprayed the day before inoculation, visual disease rating
How it was run: as §1

[3] = test system: Erysiphe graminis f. sp. tritici; experiment: Test J: wheat powdery mildew on wheat seedlings, sprayed the day before inoculation, visual disease rating
How it was run: as §1

[4] = 0 = no control relative to controls

| Structure (SMILES) | Test C disease control rating (Botrytis cinerea; [4]) [%] | Test D disease control rating (Alternaria solani; [4]) [%] | Test F disease control rating (Septoria nodorum; [4]) [%] | Test G disease control rating (Septoria tritici; [4]) [%] | Test H disease control rating [1, 4] [%] | Test I disease control rating [2, 4] [%] | Test J disease control rating [3, 4] [%] | Test C disease control rating (Botrytis cinerea; 0 = no control) [%] | Test D disease control rating (Alternaria solani; 0 = no control) [%] | Test F disease control rating (Septoria nodorum; 0 = no control) [%] | Test G disease control rating (Septoria tritici; 0 = no control) [%] | Test H disease control rating ([1]; 0 = no control) [%] | Test I disease control rating ([2]; 0 = no control) [%] | Test J disease control rating ([3]; 0 = no control) [%] |
| --- | --- | --- | --- | --- | --- | --- | --- | --- | --- | --- | --- | --- | --- | --- |
| COc1cc(OC)cc(-n2c(Cc3ccc(F)cc3F)cnc2C)c1 [compound 476] | 0 | 0 | 0 | 59 | 0 | 78 | 47 |  |  |  |  |  |  |  |
| COc1ccc(F)c(-c2c(C)nc(Br)n2-c2ccc(Cl)nc2)c1F [compound 735] | 100 | 100 | 99 | 100 | 9 | 100 | 100 |  |  |  |  |  |  |  |
| COc1cc(F)c(-c2c(Cl)nc(Cl)n2-c2cncc(Br)c2)c(F)c1 [compound 678] | 100 | 100 | 100 | 99 | 100 | 100 | 100 |  |  |  |  |  |  |  |
| COc1cc(F)c(-c2c(Cl)nc(Cl)n2-c2ccc(OC)nc2)c(F)c1 [compound 516] | 97 | 100 | 100 | 100 | 100 | 100 | 100 |  |  |  |  |  |  |  |
| Clc1ccc(-c2c(Cl)nc(Cl)n2Cc2cccc(Cl)c2)cc1 [compound 361] | 99 | 0 | 0 | 93 | 9 | 74 | 80 |  |  |  |  |  |  |  |
| COc1cc(F)c(-c2c(C)nc(Cl)n2-c2ccc(OC)nc2)c(F)c1 [compound 737] | 100 | 100 | 100 | 100 | 100 | 100 | 100 |  |  |  |  |  |  |  |
| Fc1ccc(F)c(-c2c(Cl)ncn2Cc2ccc(Cl)cc2)c1F [compound 266] |  |  |  |  |  |  |  | 100 | 100 | 97 | 94 | 98 | 99 | 99 |
| COc1cc(F)c(-c2c(Br)nn(C)c2-c2ccc(Cl)cc2)c(F)c1 [compound 424] | 100 | 100 | 99 | 100 | 0 | 94 | 100 |  |  |  |  |  |  |  |
| COc1cc(F)c(-c2c(Cl)ncn2Cc2ccc(Cl)cc2)c(F)c1 [compound 268] |  |  |  |  |  |  |  | 99 | 100 | 98 | 87 | 63 | 99 | 75 |
| Cc1nc(Cl)n(-c2ccc(Cl)c(F)c2)c1-c1cccnc1Cl [compound 360] | 100 | 99 | 0 | 95 | 9 | 99 | 98 |  |  |  |  |  |  |  |
| CCc1cccc(-n2c(Br)nc(Cl)c2-c2c(F)ccc(OC)c2F)c1 [compound 398] | 100 | 80 | 79 | 96 | 0 | 79 | 100 |  |  |  |  |  |  |  |
